In ChEMBL document CHEMBL4152195, “Lipid reducing activity and toxicity profiles of a library of polyphenol derivatives” (Eur J Med Chem, 2018):
Active and inactive are the calls of the source. The calls are words filed in the database; no cut-off is given here.

What was measured:
3T3-L1 [1] = experiment: Cytotoxicity against mouse 3T3L1 cells at 50 uM after 48 hrs by sulforhodamine B assay; assay type: cell-based; conditions: 3t3-l1, 48 h
3T3-L1 [2] = experiment: Cytotoxicity against mouse 3T3L1 cells at 50 uM after 24 hrs by sulforhodamine B assay; assay type: cell-based; conditions: 3t3-l1, 24 h
Danio rerio [3] = species: Danio rerio; experiment: Toxicity in zebra fish larvae at 5 uM after 48 hrs; assay type: organism-based; conditions: zebrafish, in vivo
Danio rerio [4] = species: Danio rerio; experiment: Lipid lowering activity in zebrafish embryos at 5 uM by Nile red fat metabolism assay; assay type: functional, organism-based
Danio rerio [5] = species: Danio rerio; experiment: Lipid lowering activity in zebrafish embryos by Nile red fat metabolism assay; assay type: functional, organism-based

SMILES	Activity (3T3-L1 [1])	Activity (3T3-L1 [2])	Activity (Danio rerio [3])	Activity (Danio rerio [4])	EC50 (Danio rerio [5])
CC(C)=CCOc1ccc2oc3ccccc3c(=O)c2c1OCC=C(C)C	51 to 75%	26 to 50%	0 to 25%		
COc1ccc2c(=O)c3ccccc3oc2c1OC	0 to 25%	0 to 25%	0 to 25%	Active	360 nM
COc1ccc2c(=O)c3cc(C(=O)N[C@@H](CO)c4ccccc4)ccc3oc2c1	0 to 25%	0 to 25%	0 to 25%	Active	
CC1(C)C=Cc2c(cc3c(=O)c4ccccc4oc3c2O)O1	0 to 25%	0 to 25%	0 to 25%	Active	560 nM
COc1cccc2oc3ccccc3c(=O)c12	0 to 25%	0 to 25%	0 to 25%	Active	790 nM
COc1ccc(Oc2ccccc2C(=O)O)cc1OC	0 to 25%	0 to 25%	0 to 25%		
COc1cc2oc3c(OC)c4c(cc3c(=O)c2cc1OC)CCC(C)(C)O4	0 to 25%	0 to 25%	0 to 25%	Active	540 nM
O=C(COc1ccc2c(=O)c3ccccc3oc2c1)N[C@H](c1ccccc1)[C@@H](O)c1ccccc1	0 to 25%	76 to 100%	0 to 25%	Active	
C#CCOc1ccc(/C=C/C(=O)/C=C/c2ccc(OCC#C)c(OC)c2)cc1OC	0 to 25%	26 to 50%	0 to 25%	Active	
O=C(O)Cc1cccc2oc3ccccc3c(=O)c12	26 to 50%	0 to 25%	0 to 25%		
COc1c2c(cc3c(=O)c4ccc(O)cc4oc13)CCC(C)(C)O2	0 to 25%	0 to 25%	0 to 25%		
COC(=O)COc1ccc2c(=O)c3ccc(OCC(=O)OC)cc3oc2c1	0 to 25%	0 to 25%	0 to 25%	Active	1670 nM
COc1cc(/C=C/C(=O)/C=C/c2ccc(O)c(OC)c2)ccc1O	0 to 25%	0 to 25%	0 to 25%	Active	
COc1c2c(cc3c(=O)c4cc(C)ccc4oc13)CCC(C)(C)O2	0 to 25%	0 to 50%	0 to 25%	Active	420 nM
CCCOc1ccc(NCCN(CC)CC)c2c(=O)c3ccccc3sc12	51 to 100%	0 to 100%	76 to 100%		
Cc1c(O)cc2oc3ccccc3c(=O)c2c1O	0 to 25%	26 to 50%	0 to 25%		
COc1cc2oc3c(OC)c4c(cc3c(=O)c2cc1OC)OC(C)(C)CC4	0 to 25%	0 to 25%	0 to 25%		
O=c1c2ccccc2sc2c(O)ccc(Cl)c12	51 to 75%	0 to 25%	0 to 25%	Active	
O=c1c2ccccc2oc2ccccc12 [XANTHONE]	0 to 25%	0 to 25%	0 to 25%		
COc1ccc2c(=O)c3ccccc3oc2c1O	0 to 25%	0 to 25%	0 to 25%	Active	480 nM
O=c1c2ccccc2oc2cc(O)ccc12	0 to 25%	0 to 25%	0 to 25%		

SMILES	Activity (3T3-L1 [1])	Activity (3T3-L1 [2])	Activity (Danio rerio [3])	Activity (Danio rerio [4])	EC50 (Danio rerio [5])
COc1cccc2c(=O)c3ccccc3oc12	0 to 25%	26 to 50%	0 to 25%	Active	
C=CCOc1ccc(/C=C/C(=O)/C=C/c2ccc(OCC=C)c(OC)c2)cc1OC	0 to 25%	0 to 25%	0 to 25%	Active	
COc1c(O)cc2oc3cc(O)c(CC=C(C)C)c(O)c3c(=O)c2c1CC=C(C)C [MANGOSTIN]	76 to 100%	76 to 100%	76 to 100%		
COc1ccccc1C(=O)c1ccc(OC)c(OC)c1O	51 to 75%	0 to 25%	0 to 25%		
CCCOc1ccc(NNC(=O)c2ccncc2)c2c(=O)c3ccccc3sc12	51 to 75%	0 to 25%	51 to 75%		
C#CCOc1ccc2c(=O)c3ccc(OCC#C)cc3oc2c1	0 to 25%	0 to 25%	0 to 25%		
COC(=O)c1ccccc1Oc1ccc(OC)c(OC)c1	51 to 75%	0 to 25%	0 to 25%		
COc1cccc2c(=O)c3cc4c(c(O)c3oc12)OC(C)(C)CC4	51 to 75%	51 to 75%	0 to 25%		
COc1cc(C(Br)Br)c2c(=O)c3ccccc3oc2c1OC	51 to 75%	26 to 50%	0 to 25%	Active	
O=c1c2cc(O)c(O)cc2oc2cc(O)c([C@@H]3O[C@H](CO)[C@@H](O)[C@H](O)[C@H]3O)c(O)c12 [MANGIFERIN]	0 to 25%	0 to 25%	0 to 25%		
O=Cc1c(O)ccc2c(=O)c3ccc(O)c(C=O)c3oc12	51 to 75%	26 to 50%	0 to 25%		
CCCOc1ccc(N2CCCCC2)c2c(=O)c3ccccc3sc12	51 to 75%	26 to 50%	76 to 100%		
O=c1c2ccccc2oc2c(O)c(O)ccc12 [3,4-DIHYDROXYXANTHONE]	51 to 75%	26 to 50%	0 to 25%	Active	
CC(=O)Oc1ccc(C(=O)c2ccc(OC(C)=O)c(OC(C)=O)c2)cc1OC(C)=O	51 to 75%	26 to 50%	0 to 25%		
O=c1c2ccccc2oc2cccc(OCCCCCCOc3cccc4oc5ccccc5c(=O)c34)c12	51 to 75%	0 to 25%	0 to 25%		
O=C(COc1ccc2c(=O)c3ccccc3oc2c1)N[C@@H](c1ccccc1)[C@H](O)c1ccccc1	0 to 25%	76 to 100%	0 to 25%		
O=c1c2ccccc2oc2cccc(OCCCCCBr)c12	26 to 50%	0 to 25%	0 to 25%	Active	
COc1c2c(cc3c(=O)c4cc(Cl)ccc4oc13)OC(C)(C)CC2	0 to 25%	0 to 25%	0 to 25%	Active	860 nM
COc1c2c(cc3c(=O)c4ccccc4oc13)OC(C)(C)C=C2	51 to 75%	26 to 50%	0 to 25%	Active	
CCCOc1ccc(NCCN(CC)CC)c2c(=O)c3ccccc3sc12.Cl	76 to 100%	76 to 100%	76 to 100%		
COc1cc(/C=C/C(=O)/C=C/c2ccc(OCc3cn(CCO[C@H]4O[C@@H](COC(C)=O)[C@H](OC(C)=O)[C@@H](OC(C)=O)[C@@H]4NC(C)=O)nn3)c(OC)c2)ccc1OCc1cn(CCO[C@@H]2O[C@H](COC(C)=O)[C@@H](OC(C)=O)[C@H](OC(C)=O)[C@@H]2NC(C)=O)nn1	0 to 25%	0 to 25%	0 to 25%		

SMILES	Activity (3T3-L1 [1])	Activity (3T3-L1 [2])	Activity (Danio rerio [3])	Activity (Danio rerio [4])	EC50 (Danio rerio [5])
COc1ccc2oc3ccccc3c(=O)c2c1	0 to 25%	51 to 75%	0 to 25%	Active	
O=c1c2ccc(O[C@H]3O[C@H](CO)[C@@H](O)[C@@H](O)[C@@H]3O)cc2oc2cc(O[C@@H]3O[C@@H](CO)[C@H](O)C(O)[C@H]3O)ccc12 (some centres undefined)	26 to 50%	0 to 25%	0 to 25%		
CC(C)[C@H](CO)NC(=O)COc1ccc2c(=O)c3ccccc3oc2c1	0 to 25%	0 to 25%	0 to 25%		
CC(C)[C@@H](CO)NC(=O)COc1ccc2c(=O)c3ccccc3oc2c1	0 to 25%	0 to 25%	0 to 25%		
C=Cc1cc2c(=O)c3ccccc3oc2c(OC)c1O	51 to 75%	0 to 25%	0 to 25%	Active	
COc1ccc2c(=O)c3cc(C(=O)N[C@H](CO)c4ccccc4)ccc3oc2c1	26 to 50%	51 to 75%	0 to 25%		
O=Cc1cc(O)c(O)c2oc3ccccc3c(=O)c12	51 to 75%	0 to 25%	0 to 25%		
O=C(O)Cc1ccc2oc3ccccc3c(=O)c2c1	0 to 25%	0 to 25%	0 to 25%		
COc1cc2c(c3oc4ccccc4c(=O)c13)OC(C)(C)C=C2	51 to 75%	51 to 75%	76 to 100%	Active	
COc1c(O)ccc2c(=O)c3ccccc3oc12	0 to 25%	0 to 25%	0 to 25%		
CCN(CC)c1ccc2c(=O)c3cc4c(c(OC)c3oc2c1)CCC(C)(C)O4	51 to 75%	51 to 75%	76 to 100%	Active	
COc1cc(C=O)c2c(=O)c3ccccc3oc2c1OC	51 to 75%	0 to 25%	0 to 25%	Active	
COc1cc([C@H]2Oc3ccc4c(=O)c5ccccc5oc4c3O[C@@H]2CO)ccc1O	0 to 25%	0 to 25%	0 to 25%		
COc1cc(CO)c2c(=O)c3ccccc3oc2c1OC	26 to 50%	0 to 25%	0 to 25%	Active	
O=c1c2ccccc2oc2c(O)cccc12	0 to 25%	0 to 25%	0 to 25%		
O=c1c2ccc(O)cc2oc2cc(O)ccc12	0 to 25%	0 to 25%	0 to 25%		
CCCOc1ccc(OC)c2c(=O)c3ccccc3sc12	51 to 75%	0 to 25%	0 to 25%	Active	
O=C(O)Cc1ccc2c(=O)c3ccccc3oc2c1	0 to 25%	0 to 25%	0 to 25%	Active	
COc1cc(C=O)c2c(=O)c3ccccc3oc2c1O	51 to 75%	0 to 25%	0 to 25%	Active	
